Test results from doi:10.1101/2020.11.24.395954v2 (biorxiv, 2021).

T1: PpKAI2L-K (Physcomitrium patens, UniProt A9S299)
T1 sequence (A9S299 1-270): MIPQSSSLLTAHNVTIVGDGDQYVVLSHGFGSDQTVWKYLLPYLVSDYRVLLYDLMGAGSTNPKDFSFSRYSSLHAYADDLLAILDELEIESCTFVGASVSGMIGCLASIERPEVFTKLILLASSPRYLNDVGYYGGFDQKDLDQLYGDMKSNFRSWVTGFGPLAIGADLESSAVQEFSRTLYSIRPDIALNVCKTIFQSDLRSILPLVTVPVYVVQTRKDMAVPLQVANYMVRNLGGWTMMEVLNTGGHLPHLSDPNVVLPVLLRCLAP

T2: PpKAI2L-D (Physcomitrium patens, UniProt A9SSF6)
T2 sequence (A9SSF6 1-271): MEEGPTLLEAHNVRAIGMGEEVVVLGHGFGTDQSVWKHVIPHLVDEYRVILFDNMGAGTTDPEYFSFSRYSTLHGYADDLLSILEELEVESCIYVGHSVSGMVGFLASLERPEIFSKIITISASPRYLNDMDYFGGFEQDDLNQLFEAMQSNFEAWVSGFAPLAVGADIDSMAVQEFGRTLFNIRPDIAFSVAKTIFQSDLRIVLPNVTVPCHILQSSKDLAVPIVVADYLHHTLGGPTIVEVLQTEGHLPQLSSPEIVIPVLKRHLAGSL

T3: PpKAI2L-E (Physcomitrium patens, UniProt A9ST85)
T3 sequence (A9ST85 1-270): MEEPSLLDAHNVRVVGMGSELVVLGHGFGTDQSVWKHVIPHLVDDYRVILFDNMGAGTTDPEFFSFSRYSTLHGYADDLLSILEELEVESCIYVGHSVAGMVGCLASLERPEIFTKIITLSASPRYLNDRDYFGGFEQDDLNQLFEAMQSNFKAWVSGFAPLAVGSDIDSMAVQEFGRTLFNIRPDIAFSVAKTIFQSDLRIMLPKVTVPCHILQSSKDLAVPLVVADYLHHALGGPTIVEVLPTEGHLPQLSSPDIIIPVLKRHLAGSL

T4: AtKAI2 (Arabidopsis thaliana, UniProt Q9SZU7)
T4 sequence (Q9SZU7 1-270): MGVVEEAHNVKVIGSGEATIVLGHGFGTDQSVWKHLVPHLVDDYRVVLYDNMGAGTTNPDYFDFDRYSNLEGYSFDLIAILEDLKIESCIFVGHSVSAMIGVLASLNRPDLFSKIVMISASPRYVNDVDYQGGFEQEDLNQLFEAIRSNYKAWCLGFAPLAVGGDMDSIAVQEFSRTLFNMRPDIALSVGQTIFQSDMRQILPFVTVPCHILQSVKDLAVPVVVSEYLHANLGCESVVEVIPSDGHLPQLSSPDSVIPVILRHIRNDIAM

B1: AtKAI2 (Arabidopsis thaliana) (protein)
chain: T4 sequence (Q9SZU7 1-270)
B2: PpKAI2L-H (Physcomitrium patens) (protein)
chain: MPSPLLSTHNVTVLGNRSDPVVVLGHGLGTDQSVWKYTVPSLVNQNFQVVLYDTMGAGSTETSDFNFKRYSSLQGHVDDLLAILDELEIENCVYVGHSMSGMIGVLASLERPDLFRKLILLSASPRYLNDSSYYGGFEQEDLDQLFSSMRSNFSAWVSGFATAAVGTDIHDEAVQEFSSTFISMRPDVALRTSQFVFQSDFRSILSEVTVPCHIVQSRKDIAVPIEVAEYLRCNLGGWTSVDILQTDGHLPQLSCPELVVPVLLHCIDS

Key:
[1] = biological target: AtD14 (Arabidopsis thaliana, UniProt Q9SQR3); test: biochemical
Sequence of AtD14 (Q9SQR3 whole entry): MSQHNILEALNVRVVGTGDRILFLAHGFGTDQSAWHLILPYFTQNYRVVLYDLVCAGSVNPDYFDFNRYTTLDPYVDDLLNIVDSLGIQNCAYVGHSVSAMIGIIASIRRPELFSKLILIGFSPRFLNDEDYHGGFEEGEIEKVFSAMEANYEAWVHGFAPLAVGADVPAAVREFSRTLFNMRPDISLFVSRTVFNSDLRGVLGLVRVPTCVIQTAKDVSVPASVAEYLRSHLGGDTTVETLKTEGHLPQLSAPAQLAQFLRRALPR

[2] = biological target: T1, PpKAI2L-K; conditions: apparent Kd
[3] = biological target: T2, PpKAI2L-D; conditions: apparent Kd
[4] = biological target: T3, PpKAI2L-E; conditions: apparent Kd
[5] = biological target: T4, AtKAI2; test: biochemical
[6] = substrate: CC(=O)Oc1ccc([N+](=O)[O-])cc1; test: purified protein

Molecule	Kd [1] [µM]	Kd [2] [µM]	Kd [3] [µM]	Kd [4] [µM]	Kd [5] [µM]	Km [6] [µM]	kcat [6] [s⁻¹]
CC1=C[C@H](O/C=C2/C(=O)O[C@@H]3c4ccccc4C[C@H]23)OC1=O [(+)-GR24]	22.8 ± 9.27	107					
CC1=C[C@@H](O/C=C2/C(=O)O[C@H]3c4ccccc4C[C@@H]23)OC1=O [(-)-GR24]	94	41	92	39	45		
B1						610.1 ± 36.69	2.647 ± 0.06558
B2						2381 ± 644	34.02 ± 5.83
